Literature values as cited in patent US9694008B2, “Fast-dissolving oral film preparation comprising aripiprazole” (CMG Pharmaceutical CO., LTD., priority 2012, dated 2017).

Conditions: at 25° C.

O=C1CCc2ccc(OCCCCN3CCN(c4cccc(Cl)c4Cl)CC3)cc2N1 [aripiprazole, 7-{4-[4-(2,3-dichlorophenyl)piperazin-1-yl]butoxy}-3,4-dihydroquinolin-2(1H)-one]
Solubility in water: about 0.00001 w/v %
